This passage reports inhibition results from patent US8946438B2, “Benzamides, production thereof, and use thereof as medicaments” (Boehringer Ingelheim International GmbH, priority 2008, dated 2015).

Each structure is given as a SMILES string.

p38 MAP-kinase, sequence (Q16539 whole entry): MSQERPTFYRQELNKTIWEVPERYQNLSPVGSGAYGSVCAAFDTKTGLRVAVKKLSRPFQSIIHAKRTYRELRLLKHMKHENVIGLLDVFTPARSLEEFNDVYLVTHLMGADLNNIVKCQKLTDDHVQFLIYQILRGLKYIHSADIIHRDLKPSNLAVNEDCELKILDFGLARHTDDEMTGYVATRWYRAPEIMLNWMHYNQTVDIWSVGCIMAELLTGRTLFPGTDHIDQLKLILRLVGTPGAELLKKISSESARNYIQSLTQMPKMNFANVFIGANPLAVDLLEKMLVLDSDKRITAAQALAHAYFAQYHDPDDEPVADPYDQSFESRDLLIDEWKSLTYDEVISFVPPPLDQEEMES

The target of this assay is p38 MAP-kinase (Homo sapiens, UniProt Q16539). In words: Enzymatic assay: inhibition of p38 MAP-kinase (phosphorylation of GST-tagged ATF2, chemoluminescence bead readout). Format: biochemical. The conditions noted are these: inhibitor 1 μM; activated p38 MAP-kinase 1 nM; 4 h preincubation; ATP 100 μM; ATF2 10 nM; read-out: % inhibitory effect at 1 μM. As for the experimental part: In this, the amount of a substrate phosphorylated by the kinase is quantified. The test is carried out as follows:
The kinase reaction is carried out in the presence of HEPES (20 mM, pH 7), MgCl2 (10 mM), DTT (1 mM) and TWEEN20 (0.01%). First, dimethylsulphoxide or inhibitor (final concentration: 1 μM) dissolved in dimethylsulphoxide are placed in a reaction vessel. Then the activated p38 MAP-kinase (final concentration 1 nM) is added and the mixture is incubated for 4 h at ambient temperature. Then a mixture of substrate (GST-tagged ATF2) and ATP is added and everything is incubated together for a further hour (final concentration ATP: 100 μM; final concentration ATF2: 10 nM).
The concentration of phosphorylated ATF2 is quantified by chemoluminescence-induced light emission. For this, a glutathione donor bead (final concentration: 5 μg/ml) which binds to the gluthathione on the ATF2 and phospho-ATF2 antibodies are added to the reaction mixture (final concentration: 3 nM; this binds the phosphate group added by the kinase reaction) to which a Protein A Acceptor Bead (final concentration: 5 μg/ml) binds. These components are dissolved in a buffer which contains 20 mM HEPES pH 7.0, 200 mM NaCL, 80 mM EDTA as well as 0.3% BSA. This reaction mixture is incubated in the dark for 1 hour at ambient temperature. When these beads come physically close, visible light is emitted which is measured in a photometer at 520-620 nm.
To determine the inhibitory activity of the compounds according to the invention a calculation is made to determine the percentage by which the kinase activity is inhibited at a fixed inhibitor concentration of 1 μM. The maximum activity is determined by non-inhibited kinase. The minimum activity or nonspecific background activity is determined using a reaction mixture without kinase. […] Table 2 summarises the degree of inhibition of the enzyme p38 MAP-kinase—as described hereinbefore—of the compounds according to the invention detailed in the section “Preparation of the final compounds”.
With `COc1c(NC(=O)c2ccc(C(F)(F)F)c(Oc3ccnc(N4CCNCC4)n3)c2)cc(C(C)(C)C)cc1NS(C)(=O)=O` [5(4), N-(5-tert-butyl-3-methanesulphonylamino-2-methoxy-phenyl)-3-(2-piperazin-1-yl-pyrimidin-4-yloxy)-4-trifluoromethyl-benzamide x trifluoroacetic acid], the inhibition at 1 µM was 45.3%.

With `COc1c(NC(=O)c2ccc(Cl)c(Oc3cc(CC4CCNCC4)ncn3)c2)cc(C(C)(C)C)cc1NS(C)(=O)=O` [5(33), N-(5-tert-butyl-3-methanesulphonylamino-2-methoxy-phenyl)-4-chloro-3-(6-piperidin-4-ylmethyl-pyrimidin-4-yloxy)-benzamide], the inhibition at 1 µM was 99.2%.

`COc1c(NC(=O)c2ccc(Cl)c(Oc3ccnc(CN4CCNCC4)c3)c2)cc(C(C)(C)C)cc1NS(C)(=O)=O` [5(34), N-(5-tert-butyl-3-methanesulphonylamino-2-methoxy-phenyl)-4-chloro-3-(2-piperazin-1-ylmethyl-pyridin-4-yloxy)-benzamide]: the inhibition at 1 µM stood at 99.1%.

On to `COc1c(NC(=O)c2ccc(C)c(Oc3ccnc(CN4CCOCC4)c3)c2)cc(C(C)(C)C)cc1NS(C)(=O)=O` [8(9), N-(5-tert-butyl-3-methanesulphonylamino-2-methoxy-phenyl)-4-methyl-3-(2-morpholin-4-ylmethyl-pyridin-4-yloxy)-benzamide], for which the inhibition at 1 µM was 98.4%.

Take `COc1c(NC(=O)c2cc(C)cc(Oc3ccncc3)c2)cc(C(C)(C)C)cc1NS(C)(=O)=O` [Example 6, N-(5-tert-butyl-3-methanesulphonylamino-2-methoxy-phenyl)-3-methyl-5-(pyridin-4-yloxy)-benzamide]: the inhibition at 1 µM amounted to 94.4%.

As to `COc1c(NC(=O)c2ccc(C)c(Oc3ccnc(CC4CCNCC4)c3)c2)cc(C(F)(F)C(F)(F)F)cc1NS(C)(=O)=O` [5(55), N-(3-methanesulphonylamino-2-methoxy-5-pentafluoroethyl-phenyl)-4-methyl-3-(2-piperidin-4-ylmethyl-pyridin-4-yloxy)-benzamide], the inhibition at 1 µM came to 99.6%.

For the compound `COc1c(NC(=O)c2ccc(C)c(Oc3cc(CN4CCNC(=O)C4)ncn3)c2)cc(C(C)(C)C)cc1NS(C)(=O)=O` [8(7), N-(5-tert-butyl-3-methanesulphonylamino-2-methoxy-phenyl)-4-methyl-3-[6-(3-oxo-piperazin-1-ylmethyl)-pyrimidin-4-yloxy]-benzamide], the inhibition at 1 µM was found to be 94.1%.

Regarding `COc1c(NC(=O)c2ccc(Cl)c(Oc3cc(CN4CCCN(C)CC4)ncn3)c2)cc(C(C)(C)C)cc1NS(C)(=O)=O` [8(38), N-(5-tert-butyl-3-methanesulphonylamino-2-methoxy-phenyl)-4-chloro-3-[6-(4-methyl-[1,4]diazepan-1-ylmethyl)-pyrimidin-4-yloxy]-benzamide], the inhibition at 1 µM is 98.8%.

Take `COc1c(NC(=O)c2ccc(Cl)c(Oc3cc(CC4CCN(C)CC4)ncn3)c2)cc(C(C)(C)C)cc1NS(C)(=O)=O` [12(2), N-(5-tert-butyl-3-methanesulphonylamino-2-methoxy-phenyl)-4-chloro-3-[6-(1-methyl-piperidin-4-ylmethyl)-pyrimidin-4-yloxy]-benzamide]: the inhibition at 1 µM is 98.7%.

For the compound `COc1c(NC(=O)c2ccc(C)c(Oc3ccnc(CC4CCCNCC4)n3)c2)cc(C(C)(C)C)cc1NS(C)(=O)=O` (stereo not drawn) [5(53), 3-(2-azepan-4-ylmethyl-pyrimidin-4-yloxy)-N-(5-tert-butyl-3-methanesulphonylamino-2-methoxy-phenyl)-4-methyl-benzamide], the inhibition at 1 µM came out at 97%.

On to `COc1c(NC(=O)c2ccc(C)c(Oc3ccnc(CN4CCOCC4)n3)c2)cc(C(C)(C)C)cc1NS(C)(=O)=O` [8(3), N-(5-tert-butyl-3-methanesulphonylamino-2-methoxy-phenyl)-4-methyl-3-(2-morpholin-4-ylmethyl-pyrimidin-4-yloxy)-benzamide], for which the inhibition at 1 µM was found to be 95.2%.

With `COc1c(NC(=O)c2ccc(C)c(Oc3ccnc(CN4CCN(C)CC4)n3)c2)cc(C(C)(C)C)cc1[S+](C)[O-]` (stereo not drawn) [13(1), N-(5-tert-butyl-3-methanesulphinyl-2-methoxy-phenyl)-4-methyl-3-[2-(4-methyl-piperazin-1-ylmethyl)-pyrimidin-4-yloxy]-benzamide], the inhibition at 1 µM was 97%.

Take `CCOc1c(NC(=O)c2ccc(C)c(Oc3ccnc(CC4CCNCC4)c3)c2)cc(C(C)(C)C)cc1NS(C)(=O)=O` [5(45), N-(5-tert-butyl-2-ethoxy-3-methanesulphonylamino-phenyl)-4-methyl-3-(2-piperidin-4-ylmethyl-pyridin-4-yloxy)-benzamide]: the inhibition at 1 µM came to 99.6%.

On to `COc1c(NC(=O)c2cc(Cl)c(C)c(Oc3ccnc(CN4CCN(C)CC4)n3)c2)cc(C(C)(C)C)cc1NS(C)(=O)=O` [7(5), N-(5-tert-butyl-3-methanesulphonylamino-2-methoxy-phenyl)-3-chloro-4-methyl-5-[2-(4-methyl-piperazin-1-ylmethyl)-pyrimidin-4-yloxy]-benzamide], for which the inhibition at 1 µM came to 98.5%.

As for `COc1c(NC(=O)c2ccc(Cl)c(Oc3cc(C(=O)N4CCNCC4)ncn3)c2)cc(C(C)(C)C)cc1NS(C)(=O)=O` [5(3), N-(5-tert-butyl-3-methanesulphonylamino-2-methoxy-phenyl)-4-chloro-3-[6-(piperazine-1-carbonyl)-pyrimidin-4-yloxy]-benzamide], the inhibition at 1 µM is 95%.

Consider `COc1c(NC(=O)c2ccc(C)c(Oc3ccnc(CC4CCCNCC4)c3)c2)cc(C(C)(C)C)cc1NS(C)(=O)=O` (stereo not drawn) [5(52), 3-(2-azepan-4-ylmethyl-pyridin-4-yloxy)-N-(5-tert-butyl-3-methanesulphonylamino-2-methoxy-phenyl)-4-methyl-benzamide], for which the inhibition at 1 µM amounted to 99.5%.

For `COc1c(NC(=O)c2ccc(C)c(Oc3ccnc(CN4CC[C@@H](N(C)C)C4)n3)c2)cc(C(C)(C)C)cc1NS(C)(=O)=O` [8(22), (R)-N-(5-tert-butyl-3-methanesulphonylamino-2-methoxy-phenyl)-3-[2-(3-dimethylamino-pyrrolidin-1-ylmethyl)-pyrimidin-4-yloxy]-4-methyl-benzamide], the inhibition at 1 µM worked out at 98.3%.

Consider `CNCc1nccc(Oc2cc(C(=O)Nc3cc(C(C)(C)C)cc(NS(C)(=O)=O)c3OC)ccc2C)n1` [8(4), N-(5-tert-butyl-3-methanesulphonylamino-2-methoxy-phenyl)-4-methyl-3-(2-methylaminomethyl-pyrimidin-4-yloxy)-benzamide], for which the inhibition at 1 µM turned out to be 66%.

For the compound `COc1c(NC(=O)c2cc(F)c(C)c(Oc3ccnc(CN4CCN(C)CC4)n3)c2)cc(C(C)(C)C)cc1NS(C)(=O)=O` [7(3), N-(5-tert-butyl-3-methanesulphonylamino-2-methoxy-phenyl)-3-fluoro-4-methyl-5-[2-(4-methyl-piperazin-1-ylmethyl)-pyrimidin-4-yloxy]-benzamide], the inhibition at 1 µM was found to be 98.8%.

Consider `COc1c(NC(=O)c2ccc(C)c(Oc3cc(N4CC[C@H](N(C)C)C4)ncn3)c2)cc(C(C)(C)C)cc1NS(C)(=O)=O` [4(13), N-(5-tert-butyl-3-methanesulphonylamino-2-methoxy-phenyl)-3-[6-((S)-3-dimethylamino-pyrrolidin-1-yl)-pyrimidin-4-yloxy]-4-methyl-benzamide], for which the inhibition at 1 µM was found to be 96.3%.

On to `COc1c(NC(=O)c2ccc(C)c(Oc3cc(CC4CCNCC4)ncn3)c2)cc(C(C)(C)C)cc1NS(C)(=O)=O` [5(18), N-(5-tert-butyl-3-methanesulphonylamino-2-methoxy-phenyl)-4-methyl-3-(6-piperidin-4-ylmethyl-pyrimidin-4-yloxy)-benzamide], for which the inhibition at 1 µM turned out to be 98.7%.

As for `COc1c(NC(=O)c2ccc(C)c(Oc3ccnc(N[C@H]4CC[C@H](N(C)C)CC4)n3)c2)cc(C(C)(C)C)cc1NS(C)(=O)=O` [4(18), N-(5-tert-butyl-3-methanesulphonylamino-2-methoxy-phenyl)-3-[2-(trans-4-dimethylamino-cyclohexylamino)-pyrimidin-4-yloxy]-4-methyl-benzamide], the inhibition at 1 µM turned out to be 99%.

Take `COc1c(NC(=O)c2ccc(Cl)c(Oc3ccnc(CN4CCCN(C)CC4)c3)c2)cc(C(C)(C)C)cc1NS(C)(=O)=O` [8(39), N-(5-tert-butyl-3-methanesulphonylamino-2-methoxy-phenyl)-4-chloro-3-[2-(4-methyl-[1,4]diazepan-1-ylmethyl)-pyridin-4-yloxy]-benzamide]: the inhibition at 1 µM turned out to be 98.9%.

For the compound `COc1c(NC(=O)c2ccc(C)c(Oc3ccnc(CN[C@@H]4CCOC4)c3)c2)cc(C(C)(C)C)cc1NS(C)(=O)=O` [8(15), (R)-N-(5-tert-butyl-3-methanesulphonylamino-2-methoxy-phenyl)-4-methyl-3-{2-[(tetrahydro-furan-3-ylamino)-methyl]-pyridin-4-yloxy}-benzamide], the inhibition at 1 µM was 95.9%.
